Eleven molecules from US20130252930A1 (BIOMARIN PHARMACEUTICAL INC., priority 2010, published 2013) can be followed below.

Usually IC50 stands for the midpoint of a concentration-inhibition curve. A word on the inhibition: it is the change of the read-out against control, counted positive when it falls. As a reminder, the half-life is how long it takes for the measured level to halve. Low readings indicate rapid decline, high ones slow decline.

Where two headings read alike, the source gives them in different places.

For data set [1], the target named is T1, CYP17 (human testicular microsome) (Homo sapiens, UniProt P05093).
T1 construct: using microsomal fraction from human testis (Celsis Cat #S00110) as the enzyme source; tissue Celsis S00110; host or cells: human testis microsomal fraction
T1 sequence (P05093 1-508): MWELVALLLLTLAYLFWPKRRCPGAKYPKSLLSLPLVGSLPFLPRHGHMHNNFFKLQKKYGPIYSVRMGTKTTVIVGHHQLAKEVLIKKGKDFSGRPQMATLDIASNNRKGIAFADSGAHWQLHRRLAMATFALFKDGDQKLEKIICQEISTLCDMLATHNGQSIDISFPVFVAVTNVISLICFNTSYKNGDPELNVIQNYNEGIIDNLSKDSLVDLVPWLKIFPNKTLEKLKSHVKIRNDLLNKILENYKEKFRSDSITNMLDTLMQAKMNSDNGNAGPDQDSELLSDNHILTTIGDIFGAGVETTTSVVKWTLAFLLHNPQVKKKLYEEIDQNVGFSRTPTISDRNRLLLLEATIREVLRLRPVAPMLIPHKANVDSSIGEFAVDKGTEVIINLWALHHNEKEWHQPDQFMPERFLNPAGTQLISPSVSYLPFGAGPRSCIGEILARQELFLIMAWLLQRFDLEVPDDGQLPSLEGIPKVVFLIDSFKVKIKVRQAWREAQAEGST
Nature of the data set: CYP17 enzymatic assay (IC50) (Biological Example 4). Format: biochemical. The following applies: human testicular microsome.

The target of data set [2] is T1, CYP17 (human testicular microsome). Nature of the data set: CYP17 enzymatic assay (% inhibition at 10 nM), version 1 (Biological Example 5). The class given is biochemical.
For data set [3], the target named is T2, Cyp21 enzyme (Human HEK 293-Cyp21 stable transfected cells) (Homo sapiens, UniProt P08686).
T2 construct: expressed in transfected cells
T2 sequence (P08686 1-495): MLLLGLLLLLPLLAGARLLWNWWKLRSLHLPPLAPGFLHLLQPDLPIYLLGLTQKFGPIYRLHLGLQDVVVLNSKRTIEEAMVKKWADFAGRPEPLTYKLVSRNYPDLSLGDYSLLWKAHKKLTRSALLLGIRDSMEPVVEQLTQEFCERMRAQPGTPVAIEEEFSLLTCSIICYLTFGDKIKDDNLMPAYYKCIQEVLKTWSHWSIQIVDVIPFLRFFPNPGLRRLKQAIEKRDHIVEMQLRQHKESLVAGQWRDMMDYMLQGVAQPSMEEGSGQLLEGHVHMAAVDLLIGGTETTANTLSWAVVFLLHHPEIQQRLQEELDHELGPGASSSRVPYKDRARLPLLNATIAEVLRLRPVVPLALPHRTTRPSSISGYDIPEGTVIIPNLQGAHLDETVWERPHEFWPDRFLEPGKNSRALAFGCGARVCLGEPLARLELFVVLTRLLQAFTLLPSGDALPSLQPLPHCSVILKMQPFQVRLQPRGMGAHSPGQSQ
In words: CYP21-HEK293 enzymatic assay (% inhibition at 100 nM) (Biological Example 10). The class given is cell-based. The following applies: HEK 293-Cyp21 cells. Here is the method: Proceeding using methods similar to those described in Biological Example 11, the percent inhibition at 100 nM was measured.
This assay was used to determine compound activity against Cyp21 enzyme. Human HEK 293-Cyp21 stable transfected cells (maintained in complete growth media DMEM+10% FBS, supplemented with 125 ug/mL Hygromycin) were seeded in a 96-well plate at 20,000 cells/well/100 uL in DMEM plus 10% FBS and allowed to attach overnight. The next day, 20 μL medium was carefully removed and 10 μL of 10× pre-made compounds in DMEM+10% FBS+10% methanol was transferred to the wells to final concentrations of 1000, 100, 10, 1, or 0.1 nM. Mock treatment was 1% methanol in growth media and the cells were left at 37° C., 5% CO2 for 5 hr. After the incubation, 10 μL of substrate progesterone (Sigma) was added to the wells to make a final concentration of 10 μM. The cells were incubated the cells at 37° C. for 20 hr. At the end of incubation, 90 μL of conditioned media was removed to measure DOC level by ELISA.
Preparation of the DOC ELISA: 100 μL of coating buffer (0.025M PBS pH 7.4) containing 200 ng/mL DOC-3-carboxymethyloxime-BSA (Steraloids. inc, Cat#3469-000) was added to each well of a 96-well plate and incubated overnight at 4° C. The next day, the plates were washed twice with 250 μl of wash solution (0.015M PBS pH 7.4 containing 0.05% Tween 20). After being washed, the wells were blocked with 250 μL blocking buffer (3% BSA in 0.025M PBS, pH 7.4) at 37° C. for 2 h. The plates were washed again 3 times as before, and then 90 μL of sample /standards (prepared in complete growth media) was added into the appropriate wells followed by 10 μL of antibody solution (1:450 rabbit anti-DOC in 0.6% BSA/PBS). The plates were incubated at room temperature for 2 h on a shaker. The contents of the wells were removed and the plate was washed 4 times. After the final wash, 100 μL of secondary antibody (1:12000 HRP-goat-anti-rabbit IgG conjugate 0.6% BSA/PBS) was added into each well. The plate was incubated at 30° C. for 45 min. The plate was washed again 4 times and 100 μL of TMB substrate solution was added to each well. The plate was incubated at room temperature for 10 min. 100 μL of stop solution was added to each well and the optical density was read at 450 nm.
The mean absorbance value for each sample was used to determine the corresponding concentration from the standard curve. Data was analyzed with “log(antagonist) vs response variable slope” under “non-linear regression analysis” using Prism5 software.

A short description of data set [4]: Human liver microsome stability assay (Biological Example 8b). The following applies: liver microsomes, pH 7.4. For orientation: Liver microsomes are a subcellular fraction often used to study metabolism.
Experimental: The reaction was started with addition of excess NADPH (5 mg/mL, 15 μL in 0.1 M potassium phosphate buffer, 1.0 mM EDTA, pH 7.4), the total volume is 45 μL (compound final concentration was 1 μM). […] 50 μL of the supernatant was transferred from each well into a 96-well sample plate containing 50 μL of ultra-pure water (Millipore) for LC-MS/MS analysis.
The test system of data set [5] is rat Cyp11B enzyme (rat adrenal mitochondria). Nature of the data set: CYP11B enzymatic assay (% inhibition at 100 nM) (Biological Example 9). The class given is biochemical. The method in brief: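 Sprague Dawley rat adrenal mitochondria were incubated with compound at 100 nM, 0.5 mM NADPH and 0.1 μM 11-deoxycortisol (pH 7.4 Tris buffer) for 60 min at 37 °C. Cortisol was measured by ELISA and corrected by subtracting the no-NADPH background. % inhibition is relative to the no-compound reaction.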

For data set [6], the target named is T1, CYP17 (human testicular microsome). In words: CYP17 enzymatic assay (% inhibition at 1 nM) (Biological Example 12). Format: biochemical. The conditions noted are these: compound at 1 nM, read-out: CYP17 enzymatic assay % inhibition at 1 nM (Biological Example No. 12).
Data set [7] concerns the target T2, Cyp21 enzyme (Human HEK 293-Cyp21 stable transfected cells). In words: CYP21-HEK293 enzymatic assay (IC50) (Biological Example 11). The class given is cell-based. The conditions noted are these: HEK 293-Cyp21 cells; read-out: CYP21-HEK293 enzymatic assay IC50 (Biological Example No. 11).
Experimental: This assay was used to determine compound activity against Cyp21 enzyme. […] The next day, 20 μL medium was carefully removed and 10 μL of 10× pre-made compounds in DMEM+10% FBS+10% methanol was transferred to the wells to final concentrations of 1000, 100, 10, 1, or 0.1 nM. Mock treatment was 1% methanol in growth media and the cells were left at 37° C., 5% CO2 for 5 hr. After the incubation, 10 μL of substrate progesterone (Sigma) was added to the wells to make a final concentration of 10 μM. The cells were incubated the cells at 37° C. for 20 hr. At the end of incubation, 90 μL of conditioned media was removed to measure DOC level by ELISA.
The next day, the plates were washed twice with 250 μl of wash solution (0.015M PBS pH 7.4 containing 0.05% Tween 20). After being washed, the wells were blocked with 250 μL blocking buffer (3% BSA in 0.025M PBS, pH 7.4) at 37° C. for 2 h. The plates were washed again 3 times as before, and then 90 μL of sample /standards (prepared in complete growth media) was added into the appropriate wells followed by 10 μL of antibody solution (1:450 rabbit anti-DOC in 0.6% BSA/PBS). The plates were incubated at room temperature for 2 h on a shaker. The contents of the wells were removed and the plate was washed 4 times. After the final wash, 100 μL of secondary antibody (1:12000 HRP-goat-anti-rabbit IgG conjugate 0.6% BSA/PBS) was added into each well. […] The plate was washed again 4 times and 100 μL of TMB substrate solution was added to each well. The plate was incubated at room temperature for 10 min. 100 μL of stop solution was added to each well and the optical density was read at 450 nm.
The mark [8] stands for this setting: DHEA by ELISA, read-out: Biological Example No. 4: CYP17 enzymatic assay IC50.
Setting [9] is: 10 nM compound, DHEA by ELISA, read-out: Biological Example No. 5: CYP17 percent inhibition at 10 nM (version 1).
[10] abbreviates: 100 nM compound, read-out: Biological Example No. 10: CYP21-HEK293 percent inhibition at 100 nM.
Where [11] appears, read: read-out: CYP17 enzymatic assay IC50 (Biological Example No. 4).
Where [12] appears, read: compound at 100 nM, read-out: CYP21-HEK293 enzymatic assay % inhibition at 100 nM (Biological Example No. 10).

On to `Cc1cncc(C2=CC[C@H]3[C@@H]4CCC5=CC(=O)N(C)CC[C@]5(C)[C@H]4CC[C@]23C)c1` [Compound 54], for which the IC50 in data set [1] (setting [8]) was less than 11 nM. In addition, the inhibition at 0.01 µM in data set [2] (setting [9]) lay within 50 to 80%. The inhibition at 0.1 µM in data set [3] (setting [10]) is less than 30%.
As for `COc1cncc(C2=CC=C3[C@@H]4CCC5=CC(=O)NCC[C@]5(C)[C@H]4CC[C@]23C)c1` [Compound 86, (5aR,7aS)-8-(5-methoxypyridin-3-yl)-5a,7a-dimethyl-4,5,5a,5b,6,7,7a,10b,11,12-decahydrocyclopenta[5,6]naphtho[2,1-c]azepin-3(2H)-one], the concentration for half-maximal inhibition (IC50) in data set [1] (setting [8]) was less than 11 nM. Further, the inhibition at 0.01 µM in data set [2] (setting [9]) was in the range of 50 to 80%. Besides, the inhibition at 0.1 µM in data set [3] (setting [10]) is not below 30%.
As to `C[C@]12CCCC(=O)CC1=CCC1[C@@H]2CC[C@]2(C)C(n3ccnc3)=CC[C@@H]12` (stereo partly drawn) [Compound 107, (3aS,10aR,10bS,12aS)-1-(1H-imidazol-1-yl)-10a,12a-dimethyl-3,3a,3b,4,8,9,10,10a,10b,11,12,12a-dodecahydrocyclohepta[a]cyclopenta[f]naphthalen-7(6H)-one], the IC50 in data set [1] (setting [8]) is less than 11 nM. Further, the inhibition at 0.01 µM in data set [2] (setting [9]) was more than 80%. The inhibition at 0.1 µM in data set [3] (setting [10]) is not below 30%. In addition, the half-life at 1 μM in data set [4] was in the range of 1 to 50 min.
In the case of `C[C@]12CCCC(=O)CC1=CC[C@@H]1[C@@H]2CC[C@]2(C)C(c3cnccn3)=CC[C@@H]12` [Compound 142, 10a,12a-dimethyl-1-(pyrazin-2-yl)-3,3a,3b,4,8,9,10,10a,10b,11,12,12a-dodecahydrocyclohepta[a]cyclopenta[f]naphthalen-7(6H)-one], the inhibition at 0.01 µM in data set [2] (setting [9]) was more than 80%. Moreover, in data set [3] (setting [10]), the inhibition at 0.1 µM was not below 30%. Further, the half-life at 1 μM in data set [4] was 1 to 50 min.
Take `C[C@]12CCC(=O)NC=C1CCC1C2CC[C@]2(C)C(n3cnnn3)=CCC12` (stereo partly drawn) [Compound 156, (5aR,7aS)-5a,7a-dimethyl-8-(1H-tetrazol-1-yl)-4,5,5a,5b,6,7,7a,10,10a,10b,11,12-dodecahydrocyclopenta[5,6]naphtho[2,1-c]azepin-3(2H)-one]: in data set [5] (100 nM compound, cortisol by ELISA), the “Biological Example No. 9: CYP11B percent inhibition at 100 nM” value is given as “U (U means the compound had a percent inhibition of greater than or equal to 32%)”. Besides, in data set [3] (setting [10]), the inhibition at 0.1 µM was less than 30%.
Consider `COc1cncc(C2=CC=C3[C@@H]4CCC5=CC(=O)N(C)CC[C@]5(C)[C@H]4CC[C@]23C)c1` [Compound 159], for which the IC50 in data set [1] (setting [8]) was less than 11 nM. The inhibition at 0.01 µM in data set [2] (setting [9]) was more than 80%. Further, in data set [3] (setting [10]), the inhibition at 0.1 µM is not below 30%. This molecule gave a half-life at 1 μM in data set [4] of 1 to 50 min.
Regarding `Cc1cncc(C2=CC=C3[C@@H]4CCC5=CC(=O)N(C)CC[C@]5(C)[C@H]4CC[C@]23C)c1` [Compound 160], the inhibition at 0.01 µM in data set [2] (setting [9]) was in the range of 50 to 80%. For the same molecule, in data set [3] (setting [10]), the inhibition at 0.1 µM is less than 30%.
Regarding `CN1CC[C@@]2(C)C(=CC1=O)CC[C@H]1C3=CC=C(c4cnccn4)[C@@]3(C)CC[C@@H]12` [Compound 184, (5aR,7aS)-3,5a,7a-trimethyl-8-(pyrazin-2-yl)-3,4,5,5a,5b,6,7,7a,11,12-decahydrocyclopenta[5,6]naphtho[1,2-d]azepin-2(10bH)-one], the IC50 in data set [1] (setting [11]) is less than 11 nM. Besides, the inhibition at 0.01 µM in data set [2] (compound at 10 nM, read-out: CYP17 enzymatic assay % inhibition at 10 nM (Biological Example No. 5)) was more than 80%. In addition, the inhibition at 0.1 µM in data set [3] (setting [12]) was not below 30%. Further, the inhibition at 0.001 µM in data set [6] was in the range of 10 to 50%.
`CC(=O)N[C@@H]1CC[C@@]2(C)C(=CC[C@H]3C4=CC=C(n5ccnc5)[C@@]4(C)CC[C@@H]32)C1` [Compound 245, N-((3R,10R,13S)-17-(1H-imidazol-1-yl)-10,13-dimethyl-2,3,4,7,8,9,10,11,12,13-decahydro-1H-cyclopenta[a]phenanthren-3-yl)acetamide]: in data set [5] (compound at 100 nM), the “CYP11B enzymatic assay % inhibition at 100 nM (Biological Example No. 9)” value is “T (T means the compound had a percent inhibition of less than 32% when tested at 100 nM)”. In addition, the inhibition at 0.1 µM in data set [3] (setting [12]) was less than 30%. In addition, in data set [6], the inhibition at 0.001 µM is 10 to 50%.
For `CON=C1C=C2CCC3C4=CC=C(c5cccnc5)[C@@]4(C)CCC3[C@@]2(C)CC1` (stereo partly drawn) [Compound 287, (10R,13S)-10,13-dimethyl-17-(pyridin-3-yl)-6,7,8,9,10,11,12,13-octahydro-1H-cyclopenta[a]phenanthren-3(2H)-one O-methyl oxime], the IC50 in data set [1] (setting [11]) is less than 11 nM; in data set [7] it was more than 100 nM. For the same molecule, the inhibition at 0.1 µM in data set [3] (setting [12]) was not below 30%. In data set [6], the inhibition at 0.001 µM lay in the range of 10 to 50%. In data set [4], the half-life at 1 μM is more than 50 min.
On to `C[C@]12CCC3C(CCC4=CC(=NO)CC[C@@]43C)C1=CC=C2c1cccnc1` (stereo partly drawn) [Compound 288, (10R,13S)-10,13-dimethyl-17-(pyridin-3-yl)-6,7,8,9,10,11,12,13-octahydro-1H-cyclopenta[a]phenanthren-3(2H)-one oxime], for which the IC50 in data set [1] (setting [11]) is less than 11 nM. Besides, the inhibition at 0.1 µM in data set [3] (setting [12]) is less than 30%. In addition, the inhibition at 0.001 µM in data set [6] is more than 50%. The half-life at 1 μM in data set [4] was in the range of 1 to 50 min.
